Measured values reported in patent US20230310573A1, “Stabilized Vaccine Compositions” (priority 2020, published 2023).
Like-named read-outs stand apart in the source and are kept apart here.

Legend:
[1] = target: T1, RSV pre-fusion F protein of SEQ ID NO: 10 (Human respiratory syncytial virus A, UniProt P03420, D486N/DEL108-136/I379V/M447V/N67I/P102A/S215P); test: Thermo-stability (Tm50) of RSV pre-fusion F by Differential Scanning Fluorimetry (DSF); type: physicochemical
T1 construct: made in house
Experimental: Thermo-stability of the RSV pre-fusion F protein of SEQ ID NO: 10 was determined by Differential Scanning Fluorimetry (DSF) by monitoring the fluorescent emission of Sypro Orange Dye (ThermoFisher Scientific) in a 96 well optical qPCR plate. Inhibitors were diluted in DMSO prior to the experiment. Same amount of DMSO was added to pre-fusion F protein without inhibitor. To each well, 5 μl of 20× Sypro orange solution was added. Upon gradual increase of the temperature, from 25° C. to 95° C. (0.015° C./s), the polypeptides unfold and the fluorescent dye binds to the exposed hydrophobic residues leading to a characteristic change in emission. The melting curves were measured using a ViiA7 real time PCR machine (Applied Biosystems). The 1st derivative of the fluorescent signal (a.u.) versus the temperature (° C.) of three individual samples (technical triplicate), as well as the averaged melting curve, were plotted with Graphpad Prism software (Dan Diego, CA, US). From the averaged melting curve, the Tm50 was deducted (lowest point on the curve). The Tm50 values represent the temperature at which 50% of the protein is unfolded and thus are a measure for the temperature stability of the polypeptides. The increase of the Tm50 is reported as difference of the Tm50 of pre-fusion F protein with stabilizing antiviral compound compared with the Tm50 of pre-fusion F protein with only addition of DMSO (i.e. without antiviral compound).
(§1) Vials were frozen to −70° C. in 24 hours under controlled conditions. Samples were subsequently thawed to RT and analyzed by analytical Size Exclusion Chromatography (SEC) to measure loss of RSV F trimer compared the sample that was kept at 4° C. In addition, the dialyzed materials with and without stabilizing compound III were evaluated in DSF to measure the melting temperature. For experimental details see example 2.
as §1, with “Each formulation (pre and post UF/DF samples) was diluted to 0.3 mg/ml. 0.75 ml of each formulation was filled in glass injection vials with rubber stopper and sealed with aluminum caps. Vials” for “Vials”, “different formulations” for “dialyzed materials”
Each formulation (pre and post dialysis samples) was diluted to 0.3 mg/ml. 0.75 ml of each formulation was filled in glass injection vials with rubber stopper and sealed with aluminum caps. Vials were slowly frozen to −70° C. in 24 hours. Samples were subsequently thawed to RT and analyzed by analytical Size Exclusion Chromatography (SEC) to measure loss of RSV F trimer compared the sample that was kept at 4° C. In addition, the different formulations with and without compound III were evaluated in DSF to measure the melting temperature. For experimental details see example 2.

[2] = target: T2, RSV pre-fusion F (preF) protein of SEQ ID NO: 10 (Human respiratory syncytial virus A, UniProt P03420, D486N/DEL108-136/I379V/M447V/N67I/P102A/S215P); type: physicochemical
T2 construct: made in house

CS(=O)(=O)CCCn1c(Cn2c(=O)n(C3CC3)c3ccncc32)nc2cc(Br)ccc21 [Compound III, 3-[[5-bromo-1-(3-methylsulfonylpropyl)benzimidazol-2-yl]methyl]-1-cyclopropyl-imidazo[4,5-c]pyridin-2-one]
Tm50 (DSF) after buffer exchange ([1]; 1:50, Formulation 1 and 2 without PS20, AP1): increased the Tm50 irrespective of the buffer | Tm50 (DSF) after UF/DF ([1]; compound in the protein and in the diavolume): yielded the highest Tm50 | Tm50 (DSF), 1:30 ratio vs 1:3 ratio ([1]; dialysis experiment): yielded a higher Tm50 than a 1:3 ratio | Tm50 (DSF) vs samples without compound ([1]; pre- and post-dialysis samples): higher | Tm50 (DSF) over time after dialysis ([1]; stored at 4° C., Day 0, 21, 84): remained relatively constant | trimer content after heat stress (SEC) ([2]; 6 weeks at 37° C., AP1, formulation 1, formulation 5a, trimer:compound 1:3 and 1:9): trimer content was not changed compared to the control | aggregation after heat stress (SEC) ([2]; 6 weeks at 47° C., AP1, formulation 1, formulation 5a, trimer:compound 1:3 and 1:9): aggregation was higher for the samples without compound compared to the samples with compound | formation of protein aggregates in liquid phase (SEC trimer content vs 4° C. control) ([2]; 37° C., up to 26 weeks, different buffers, 1:3 or 1:9): protects from the formation of protein aggregates | protection from aggregation over time, by ratio ([2]; 37° C., up to 26 weeks, higher ratios (1:9)): best protection from aggregation over time | protection from aggregation at 37° C. ([2]; AP1, 9, 16 or 26 weeks): did not show protection from aggregation | trimer content at 37° C. ([2]; Formulation 1, 9, 16 or 26 weeks): improved the trimer content | trimer content at 37° C. ([2]; Formulation 5a and FB12, 9, 16 or 26 weeks): always improved the trimer content
